Read-outs that look alike come from different tables or passages of the source.
System: spinal cord injury (SCI) in C57B1/6J mice
Assay type: in vivo, mouse

MEVGWYRSPFSRVVHLYRNGK [MOG/CFA/PBS, pMOG 35-55 emulsified in CFA, PBS i.c.v. instead of cells]
Basso motor score (BMS), mean±SEM (immunization immediately after SCI, CFA containing 0.5% Mycobacterium tuberculosis, i.c.v. injection 1 week later (FIG. 7A)): 2.71±0.5

MEVGWYRSPFSRVVHLYRNGK [MOG/CFA, MOG peptide 35-55 emulsified in CFA containing 2.5% Mycobacterium tuberculosis]
Basso motor score (BMS) (MOG 35-55 in CFA 2.5% M. tuberculosis one week prior to SCI, no aNPCs (FIGS. 7G, 7H)): 0.35±0.2

MEVGWYRSPFDRVVHLYRNGK [45D peptide, altered MOG 35-55 peptide, serine to aspartic acid substitution]
Basso motor score (BMS), mean±SEM (immunization in CFA 2.5% M. tuberculosis, without aNPC transplantation (FIG. 7C)): 2.57±0.24
Basso motor score (BMS), mean±SEM (vaccination in CFA 2.5% M. tuberculosis 1 week before SCI, aNPCs i.c.v. 1 week after SCI (FIG. 7C)): 4.11±0.27

B1: OVA/CFA/PBS: nonself protein ovalbumin emulsified in CFA, PBS i.c.v. (protein, UniProt P01012 2-386, looked up)
Ovalbumin: GSIGAASMEFCFDVFKELKVHHANENIFYCPIAIMSALAMVYLGAKDSTRTQINKVVRFDKLPGFGDSIEAQCGTSVNVHSSLRDILNQITKPNDVYSFSLASRLYAEERYPILPEYLQCVKELYRGGLEPINFQTAADQARELINSWVESQTNGIIRNVLQPSSVDSQTAMVLVNAIVFKGLWEKAFKDEDTQAMPFRVTEQESKPVQMMYQIGLFRVASMASEKMKILELPFASGTMSMLVLLPDEVSGLEQLESIINFEKLTEWTSSNVMEERKIKVYLPRMKMEEKYNLTSVLMAMGITDVFSSSANLSGISSAESLKISQAVHAAHAEINEAGREVVGSAEAGVDAASVSEEFRADHPFLFCIKHIATNAVLFFGRCVSP
modifications: emulsified in CFA
Basso motor score (BMS) (OVA in CFA 2.5% M. tuberculosis, i.c.v. injection 1 week later (FIG. 7F)): 2.2±0.68
